# Laboratory results published in PubChem BioAssay (NCI).
#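 1) Cells in 96-well plates. 2) Compound, 48 h, 5 concentrations. 3) Linear interpolation between surrounding doses. 4) Unreached endpoint = highest concentration. Here, GI50 denotes the concentration required for 50% inhibition of growth. TGI denotes the concentration required for complete inhibition of growth.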
# Legend:
# Assay in all cases: NCI tumour cell line growth inhibition, 48 h
# NCI-H522 lung = system: NCI-H522 lung
# NCI-H226 lung = system: NCI-H226 lung
# NCI-H460 lung = system: NCI-H460 lung
# ACHN renal = system: ACHN renal
# HCC-2998 colon = system: HCC-2998 colon
# SK-MEL-28 melanoma = system: SK-MEL-28 melanoma
# K-562 leukemia = system: K-562 leukemia
# A549 NSCLC = system: A549 NSCLC
# KM12 colon = system: KM12 colon
# RPMI-8226 leukemia = system: RPMI-8226 leukemia
# SF-268 CNS = system: SF-268 CNS
# HT29 colon = system: HT29 colon
# RXF 393 renal = system: RXF 393 renal
# HOP-62 NSCLC = system: HOP-62 NSCLC
# OVCAR-5 ovarian = system: OVCAR-5 ovarian
# DU-145 prostate = system: DU-145 prostate
# 786-0 renal = system: 786-0 renal
# MDA-MB-435 = system: MDA-MB-435
# SF-539 CNS = system: SF-539 CNS
# UACC-257 melanoma = system: UACC-257 melanoma
# NCI-H23 lung = system: NCI-H23 lung
# SR leukemia = system: SR leukemia
# MDA-MB-231 breast = system: MDA-MB-231 breast
# HCT-116 colon = system: HCT-116 colon
# M14 melanoma = system: M14 melanoma
# COLO 205 colon = system: COLO 205 colon
# SW-620 colon = system: SW-620 colon
# PC-3 prostate = system: PC-3 prostate
# CCRF-CEM leukemia = system: CCRF-CEM leukemia
# MDA-MB-468 breast = system: MDA-MB-468 breast
# SF-295 CNS = system: SF-295 CNS
# U251 CNS = system: U251 CNS
# SNB-75 CNS = system: SNB-75 CNS
# A498 renal = system: A498 renal
# LOX IMVI melanoma = system: LOX IMVI melanoma
# HCT-15 colon = system: HCT-15 colon
# SNB-19 CNS = system: SNB-19 CNS
# OVCAR-3 ovarian = system: OVCAR-3 ovarian
# HOP-92 NSCLC = system: HOP-92 NSCLC
# IGROV1 ovarian = system: IGROV1 ovarian
# HL-60(TB) leukemia = system: HL-60(TB) leukemia
# MCF7 breast = system: MCF7 breast
# MOLT-4 leukemia = system: MOLT-4 leukemia
# TK-10 renal = system: TK-10 renal
# UACC-62 melanoma = system: UACC-62 melanoma
# CAKI-1 renal = system: CAKI-1 renal
# SK-OV-3 ovarian = system: SK-OV-3 ovarian
# T-47D breast = system: T-47D breast
# OVCAR-8 ovarian = system: OVCAR-8 ovarian
# UO-31 renal = system: UO-31 renal
# BT-549 breast = system: BT-549 breast
# OVCAR-4 ovarian = system: OVCAR-4 ovarian
# EKVX NSCLC = system: EKVX NSCLC
# HS 578T breast = system: HS 578T breast
# SK-MEL-5 melanoma = system: SK-MEL-5 melanoma
# SN12C renal = system: SN12C renal
# MALME-3M melanoma = system: MALME-3M melanoma
smiles,measurement,setting,value
CC1(C)CC[C@]2(C(=O)Nc3ccc(Br)cc3)CC[C@]3(C)C(=CCC4[C@@]5(C)C[C@@H](O)[C@H](O)[C@@](C)(CO)C5CC[C@]43C)C2C1 (some centres undefined),GI50,NCI-H522 lung,17.1 µM
same,TGI,NCI-H522 lung,34.6 µM
same,GI50,NCI-H226 lung,16.8 µM
same,TGI,NCI-H226 lung,34.2 µM
same,GI50,NCI-H460 lung,17.5 µM
same,TGI,NCI-H460 lung,38.3 µM
same,GI50,ACHN renal,14.6 µM
same,TGI,ACHN renal,28.2 µM
same,GI50,HCC-2998 colon,16.2 µM
same,TGI,HCC-2998 colon,31 µM
same,GI50,SK-MEL-28 melanoma,16.1 µM
same,TGI,SK-MEL-28 melanoma,35.8 µM
same,GI50,K-562 leukemia,23.1 µM
same,TGI,K-562 leukemia,> 100 µM
same,GI50,A549 NSCLC,30.5 µM
same,TGI,A549 NSCLC,> 100 µM
same,GI50,KM12 colon,18.1 µM
same,TGI,KM12 colon,38.1 µM
same,GI50,RPMI-8226 leukemia,19.5 µM
same,TGI,RPMI-8226 leukemia,72.3 µM
same,GI50,SF-268 CNS,20.9 µM
same,TGI,SF-268 CNS,71.9 µM
same,GI50,HT29 colon,12.9 µM
same,TGI,HT29 colon,26.7 µM
same,GI50,RXF 393 renal,12.6 µM
same,TGI,RXF 393 renal,25.6 µM
same,GI50,HOP-62 NSCLC,15 µM
same,TGI,HOP-62 NSCLC,31.8 µM
same,GI50,OVCAR-5 ovarian,13.2 µM
same,TGI,OVCAR-5 ovarian,27.2 µM
same,GI50,DU-145 prostate,26.7 µM
same,TGI,DU-145 prostate,81 µM
same,GI50,786-0 renal,16.7 µM
same,TGI,786-0 renal,31.5 µM
same,GI50,MDA-MB-435,15.9 µM
same,TGI,MDA-MB-435,31.4 µM
same,GI50,SF-539 CNS,15.9 µM
same,TGI,SF-539 CNS,30 µM
same,GI50,UACC-257 melanoma,20.2 µM
same,TGI,UACC-257 melanoma,56.1 µM
same,GI50,NCI-H23 lung,17.1 µM
same,TGI,NCI-H23 lung,33.6 µM
same,GI50,SR leukemia,19.1 µM
same,TGI,SR leukemia,> 100 µM
same,GI50,MDA-MB-231 breast,15.3 µM
same,TGI,MDA-MB-231 breast,30 µM
same,GI50,HCT-116 colon,13.5 µM
same,TGI,HCT-116 colon,26.9 µM
same,GI50,M14 melanoma,17.4 µM
same,TGI,M14 melanoma,40.8 µM
same,GI50,COLO 205 colon,15.2 µM
same,TGI,COLO 205 colon,32.8 µM
same,GI50,SW-620 colon,25.7 µM
same,TGI,SW-620 colon,> 100 µM
same,GI50,PC-3 prostate,14.5 µM
same,TGI,PC-3 prostate,40.8 µM
same,GI50,CCRF-CEM leukemia,23.2 µM
same,TGI,CCRF-CEM leukemia,75.9 µM
same,GI50,MDA-MB-468 breast,15 µM
same,TGI,MDA-MB-468 breast,29.4 µM
same,GI50,SF-295 CNS,15.8 µM
same,TGI,SF-295 CNS,30.6 µM
same,GI50,U251 CNS,16.6 µM
same,TGI,U251 CNS,33.5 µM
same,GI50,SNB-75 CNS,14.5 µM
same,TGI,SNB-75 CNS,60.7 µM
same,GI50,A498 renal,19 µM
same,TGI,A498 renal,34.6 µM
same,GI50,LOX IMVI melanoma,17.8 µM
same,TGI,LOX IMVI melanoma,33 µM
same,GI50,HCT-15 colon,14.6 µM
same,TGI,HCT-15 colon,29 µM
same,GI50,SNB-19 CNS,25.8 µM
same,TGI,SNB-19 CNS,> 100 µM
same,GI50,OVCAR-3 ovarian,17.1 µM
same,TGI,OVCAR-3 ovarian,34 µM
same,GI50,HOP-92 NSCLC,14.5 µM
same,TGI,HOP-92 NSCLC,31.6 µM
same,GI50,IGROV1 ovarian,17.1 µM
same,TGI,IGROV1 ovarian,37.7 µM
same,GI50,HL-60(TB) leukemia,18.2 µM
same,TGI,HL-60(TB) leukemia,50.7 µM
same,GI50,MCF7 breast,14.9 µM
same,TGI,MCF7 breast,34.9 µM
same,GI50,MOLT-4 leukemia,13.2 µM
same,TGI,MOLT-4 leukemia,50 µM
same,GI50,TK-10 renal,19.8 µM
same,TGI,TK-10 renal,49.9 µM
same,GI50,UACC-62 melanoma,12 µM
same,TGI,UACC-62 melanoma,25.2 µM
same,GI50,CAKI-1 renal,12.6 µM
same,TGI,CAKI-1 renal,40.8 µM
same,GI50,SK-OV-3 ovarian,16.5 µM
same,TGI,SK-OV-3 ovarian,38.6 µM
same,GI50,T-47D breast,13.4 µM
same,TGI,T-47D breast,30.4 µM
same,GI50,OVCAR-8 ovarian,24 µM
same,TGI,OVCAR-8 ovarian,73.7 µM
same,GI50,UO-31 renal,13.5 µM
same,TGI,UO-31 renal,33.4 µM
same,GI50,BT-549 breast,16.4 µM
same,TGI,BT-549 breast,33.2 µM
same,GI50,OVCAR-4 ovarian,15.1 µM
same,TGI,OVCAR-4 ovarian,35.8 µM
same,GI50,EKVX NSCLC,16.6 µM
same,TGI,EKVX NSCLC,41.6 µM
same,GI50,HS 578T breast,20.1 µM
same,TGI,HS 578T breast,63.5 µM
same,GI50,SK-MEL-5 melanoma,15.7 µM
same,TGI,SK-MEL-5 melanoma,29.1 µM
same,GI50,SN12C renal,16.6 µM
same,TGI,SN12C renal,31.8 µM
same,GI50,MALME-3M melanoma,16.1 µM
same,TGI,MALME-3M melanoma,30.4 µM
